Experimental data as given in patent US20230141101A1, “PDE4 INHIBITOR COMPOUND AND MEDICAL USE THEREOF” (Suzhou Longbotai Pharmaceuticals Co., Ltd., priority 2020, published 2023).

Columns and labels:
Format in all cases: biochemical
Details in all cases: 20 nM
[1] = molecular target: T1, PDE4A1A (Homo sapiens, UniProt P27815); test: PDE4 inhibitory activity assay (FAM-cAMP enzymatic reaction), PDE4A1A
T1 construct: purchased BPS 60040
Method in brief: (§1)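 Inhibition rates from a fluorescence read gave IC50 values. Each enzyme (PDE4A1A, PDE4B1, PDE4D2) sat with compound for 15 min at room temperature; FAM-cAMP then started a 30 min room-temperature reaction, ended with stop solution and left 60 min more.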

[2] = molecular target: T2, PDE4B1 (Homo sapiens, UniProt Q07343); test: PDE4 inhibitory activity assay (FAM-cAMP enzymatic reaction), PDE4B1
T2 construct: purchased BPS 60041
T2 sequence (Q07343 whole entry): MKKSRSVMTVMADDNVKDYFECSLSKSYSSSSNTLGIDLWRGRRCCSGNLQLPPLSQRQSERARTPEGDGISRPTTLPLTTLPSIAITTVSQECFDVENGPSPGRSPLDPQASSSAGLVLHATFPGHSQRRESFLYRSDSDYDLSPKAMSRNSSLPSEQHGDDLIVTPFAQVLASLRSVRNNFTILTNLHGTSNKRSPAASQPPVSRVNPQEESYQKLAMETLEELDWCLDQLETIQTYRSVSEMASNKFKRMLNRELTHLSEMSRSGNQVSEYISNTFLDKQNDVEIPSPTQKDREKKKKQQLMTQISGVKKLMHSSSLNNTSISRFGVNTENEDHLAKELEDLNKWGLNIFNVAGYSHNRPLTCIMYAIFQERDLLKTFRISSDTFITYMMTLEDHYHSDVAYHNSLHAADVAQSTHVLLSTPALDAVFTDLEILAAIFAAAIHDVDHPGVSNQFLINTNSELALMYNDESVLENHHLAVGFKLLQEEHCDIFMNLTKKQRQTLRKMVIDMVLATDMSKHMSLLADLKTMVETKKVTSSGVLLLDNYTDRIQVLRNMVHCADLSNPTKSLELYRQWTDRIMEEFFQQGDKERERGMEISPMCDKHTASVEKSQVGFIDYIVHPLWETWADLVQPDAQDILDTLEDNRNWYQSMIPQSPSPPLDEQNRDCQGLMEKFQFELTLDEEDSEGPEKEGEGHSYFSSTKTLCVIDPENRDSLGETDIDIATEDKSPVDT
Method in brief: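 Each isoform is incubated with test compound for 15 min at room temperature before FAM-cAMP substrate starts a 30-min reaction.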

[3] = molecular target: PDE4D2 (Homo sapiens, UniProt Q08499); test: PDE4 inhibitory activity assay (FAM-cAMP enzymatic reaction), PDE4D2
Sequence of PDE4D2 (Q08499 303-809): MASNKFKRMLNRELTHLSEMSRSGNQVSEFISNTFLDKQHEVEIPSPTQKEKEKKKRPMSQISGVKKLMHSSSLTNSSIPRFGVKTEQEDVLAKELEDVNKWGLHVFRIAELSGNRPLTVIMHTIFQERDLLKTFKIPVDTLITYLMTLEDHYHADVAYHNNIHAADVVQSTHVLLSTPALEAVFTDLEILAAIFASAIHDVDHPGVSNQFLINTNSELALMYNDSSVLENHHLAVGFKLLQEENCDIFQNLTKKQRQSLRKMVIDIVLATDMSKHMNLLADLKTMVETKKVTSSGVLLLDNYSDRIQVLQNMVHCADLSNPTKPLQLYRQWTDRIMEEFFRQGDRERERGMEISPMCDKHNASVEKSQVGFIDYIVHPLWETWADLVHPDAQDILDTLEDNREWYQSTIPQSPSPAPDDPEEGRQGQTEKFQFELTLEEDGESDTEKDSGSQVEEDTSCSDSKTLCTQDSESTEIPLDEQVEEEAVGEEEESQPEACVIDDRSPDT
Method in brief: as §1

T1 sequence (P27815 1-647 isoform P27815-4): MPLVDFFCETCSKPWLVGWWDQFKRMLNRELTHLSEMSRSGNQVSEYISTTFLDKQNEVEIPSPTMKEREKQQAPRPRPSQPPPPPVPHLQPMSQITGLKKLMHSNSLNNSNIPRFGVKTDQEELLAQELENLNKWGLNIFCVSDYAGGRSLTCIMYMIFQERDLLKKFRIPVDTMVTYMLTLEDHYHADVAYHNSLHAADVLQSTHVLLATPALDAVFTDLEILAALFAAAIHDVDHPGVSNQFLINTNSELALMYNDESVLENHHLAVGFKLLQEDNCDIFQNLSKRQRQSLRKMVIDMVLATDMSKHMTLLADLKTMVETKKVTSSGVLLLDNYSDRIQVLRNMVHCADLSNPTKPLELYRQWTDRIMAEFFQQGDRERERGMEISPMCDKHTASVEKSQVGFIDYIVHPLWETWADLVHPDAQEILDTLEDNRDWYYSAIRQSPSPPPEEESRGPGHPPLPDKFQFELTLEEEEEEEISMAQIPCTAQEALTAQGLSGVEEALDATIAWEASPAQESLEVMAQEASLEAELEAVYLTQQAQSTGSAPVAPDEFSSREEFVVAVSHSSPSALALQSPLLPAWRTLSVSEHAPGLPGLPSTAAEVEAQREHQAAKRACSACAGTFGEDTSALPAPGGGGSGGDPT

Row | PDE4 A1 inhibitory effect at 20 nM [1] | PDE4 B1 inhibitory effect at 20 nM [2] | PDE4 D2 inhibitory effect at 20 nM [3] | Compound
1 | + | + | + | CCOc1nc([C@@H](CS(C)(=O)=O)n2c(=O)n(C)c3cc(-c4ccccc4OC)ccc32)ccc1OC [Ex. 144, (S)-1-(1-(6-ethoxy-5-methoxypyridin-2-yl)-2-(methylsulfonyl)ethyl)-5-(2-methoxyphenyl)-3-methyl-1H-benzo[d]imidazol-2(3H)-one]
2 | − | − | − | CCOc1nc([C@H](CS(C)(=O)=O)n2c(=O)[nH]c3cc(-c4ccccc4OC)ccc32)ccc1OC [Ex. 145, (R)-1-(1-(6-ethoxy-5-methoxypyridin-2-yl)-2-(methylsulfonyl)ethyl)-5-(2-methoxyphenyl)-1H-benzo[d]imidazol-2(3H)-one]
3 | + | + | + | CCOc1nc([C@@H](CS(C)(=O)=O)n2c(=O)[nH]c3cc(-c4ccccc4C(F)(F)F)ccc32)ccc1OC [Ex. 146, (S)-1-(1-(6-ethoxy-5-methoxypyridin-2-yl)-2-(methylsulfonyl)ethyl)-5-(2-(trifluoromethyl)phenyl)-1H-benzo[d]imidazol-2(3H)-one]
4 | + | + | + | CCOc1nc([C@@H](CS(C)(=O)=O)n2c(=O)n(C)c3cc(-c4ccccc4C(F)(F)F)ccc32)ccc1OC [Ex. 147, (S)-1-(1-(6-ethoxy-5-methoxypyridin-2-yl)-2-(methylsulfonyl)ethyl)-5-(2-(trifluoromethyl)phenyl)-3-methyl-1H-benzo[d]imidazol-2(3H)-one]
5 | + | + | + | CCOc1nc([C@@H](CS(C)(=O)=O)n2c(=O)[nH]c3cc(-c4ccccc4C4CC4)ccc32)ccc1OC [Ex. 148, (S)-5-(2-cyclopropylphenyl)-1-(1-(6-ethoxy-5-methoxypyridin-2-yl)-2-(methylsulfonyl)ethyl)-1H-benzo[d]imidazol-2(3H)-one]
6 | + | + | + | CCOc1nc([C@@H](CS(C)(=O)=O)n2c(=O)[nH]c3c(C)c(-c4ccccc4C(C)C)ccc32)ccc1OC [Ex. 149, (S)-1-(1-(6-ethoxy-5-methoxypyridin-2-yl)-2-(methylsulfonyl)ethyl)-5-(2-isopropylphenyl)-4-methyl-1H-benzo[d]imidazol-2(3H)-one]
7 | + | + | + | CCOc1nc([C@@H](CS(C)(=O)=O)n2c(=O)[nH]c3cc(-c4ccccc4CC)ccc32)ccc1OC [Ex. 150, (S)-1-(1-(6-ethoxy-5-methoxypyridin-2-yl)-2-(methylsulfonyl)ethyl)-5-(2-ethylphenyl)-1H-benzo[d]imidazol-2(3H)-one]
8 | + | + | + | CCOc1nc([C@@H](CS(C)(=O)=O)n2c(=O)n(C)c3cc(-c4ccccc4CC)ccc32)ccc1OC [Ex. 151, (S)-1-(1-(6-ethoxy-5-methoxypyridin-2-yl)-2-(methylsulfonyl)ethyl)-5-(2-ethylphenyl)-3-methyl-1H-benzo[d]imidazol-2(3H)-one]
9 | + | + | + | CCOc1nc([C@@H](CS(C)(=O)=O)n2c(=O)[nH]c3cc(-c4cccc(F)c4F)ccc32)ccc1OC [Ex. 152, (S)-5-(2,3-difluorophenyl)-1-(1-(6-ethoxy-5-methoxypyridin-2-yl)-2-(methylsulfonyl)ethyl)-1H-benzo[d]imidazol-2(3H)-one]
10 | + | + | + | CCOc1nc([C@@H](CS(C)(=O)=O)n2c(=O)n(C)c3cc(-c4cccc(F)c4F)ccc32)ccc1OC [Ex. 153, (S)-5-(2,3-difluorophenyl)-1-(1-(6-ethoxy-5-methoxypyridin-2-yl)-2-(methylsulfonyl)ethyl)-3-methyl-1H-benzo[d]imidazol-2(3H)-one]

The remaining lines, values behind:

Row | Compound | PDE4 A1 inhibitory effect at 20 nM [1] | PDE4 B1 inhibitory effect at 20 nM [2] | PDE4 D2 inhibitory effect at 20 nM [3]
11 | CCOc1nc([C@@H](CS(C)(=O)=O)n2c(=O)[nH]c3cc(-c4ccccc4)ccc32)ccc1OC [Ex. 130, (S)-1-(1-(6-ethoxy-5-methoxypyridin-2-yl)-2-(methylsulfonyl)ethyl)-5-phenyl-1H-benzo[d]imidazol-2(3H)-one] | + | + | +
12 | CCOc1nc([C@@H](CS(C)(=O)=O)n2c(=O)n(C)c3cc(-c4ccccc4)ccc32)ccc1OC [Ex. 131, (S)-1-(1-(6-ethoxy-5-methoxypyridin-2-yl)-2-(methylsulfonyl)ethyl)-5-phenyl-3-methyl-1H-benzo[d]imidazol-2(3H)-one] | + | + | +
13 | CCOc1nc([C@@H](CS(C)(=O)=O)n2c(=O)[nH]c3cc(-c4ccccc4F)ccc32)ccc1OC [Ex. 132, (S)-1-(1-(6-ethoxy-5-methoxypyridin-2-yl)-2-(methylsulfonyl)ethyl)-5-(2-fluorophenyl)-1H-benzo[d]imidazol-2(3H)-one] | + | + | +
14 | CCOc1nc([C@H](CS(C)(=O)=O)n2c(=O)[nH]c3cc(-c4ccccc4F)ccc32)ccc1OC [Ex. 134, (R)-1-(1-(6-ethoxy-5-methoxypyridin-2-yl)-2-(methylsulfonyl)ethyl)-5-(2-fluorophenyl)-1H-benzo[d]imidazol-2(3H)-one] | + | + | +
15 | CCOc1nc([C@@H](CS(C)(=O)=O)n2c(=O)[nH]c3cc(-c4ccc(F)cc4)ccc32)ccc1OC [Ex. 135, (S)-1-(1-(6-ethoxy-5-methoxypyridin-2-yl)-2-(methylsulfonyl)ethyl)-5-(4-fluorophenyl)-1H-benzo[d]imidazol-2(3H)-one] | + | + | +
16 | CCOc1nc([C@H](CS(C)(=O)=O)n2c(=O)[nH]c3cc(-c4ccc(F)cc4)ccc32)ccc1OC [Ex. 136, (R)-1-(1-(6-ethoxy-5-methoxypyridin-2-yl)-2-(methylsulfonyl)ethyl)-5-(4-fluorophenyl)-1H-benzo[d]imidazol-2(3H)-one] | + | + | +
17 | CCOc1nc([C@@H](CS(C)(=O)=O)n2c(=O)n(C)c3cc(-c4ccc(F)cc4)ccc32)ccc1OC [Ex. 137, (S)-1-(1-(6-ethoxy-5-methoxypyridin-2-yl)-2-(methylsulfonyl)ethyl)-3-methyl-5-(4-fluorophenyl)-1H-benzo[d]imidazol-2(3H) one] | + | + | +
18 | CCOc1nc([C@H](CS(C)(=O)=O)n2c(=O)n(C)c3cc(-c4ccc(F)cc4)ccc32)ccc1OC [Ex. 138, (R)-1-(1-(6-ethoxy-5-methoxypyridin-2-yl)-2-(methylsulfonyl)ethyl)-3-methyl-5-(4-fluorophenyl)-1H-benzo[d]imidazol-2(3H)-one] | + | + | +
19 | CCOc1nc([C@@H](CS(C)(=O)=O)n2c(=O)[nH]c3cc(-c4ccccc4C)ccc32)ccc1OC [Ex. 139, (S)-1-(1-(6-ethoxy-5-methoxypyridin-2-yl)-2-(methylsulfonyl)ethyl)-5-(o-methylphenyl)-1H-benzo[d]imidazol-2(3H)-one] | + | + | +
20 | CCOc1nc([C@@H](CS(C)(=O)=O)n2c(=O)n(C)c3cc(-c4ccccc4C)ccc32)ccc1OC [Ex. 140, (S)-1-(1-(6-ethoxy-5-methoxypyridin-2-yl)-2-(methylsulfonyl)ethyl)-5-(o-methylphenyl)-3-methyl-1H-benzo[d]imidazol-2(3H)-one] | + | + | +
21 | CCOc1nc([C@H](CS(C)(=O)=O)n2c(=O)[nH]c3cc(-c4ccccc4C)ccc32)ccc1OC [Ex. 141, (R)-1-(1-(6-ethoxy-5-methoxypyridin-2-yl)-2-(methylsulfonyl)ethyl)-5-(o-methylphenyl)-1H-benzo[d]imidazol-2(3H)-one] | + | + | +
22 | CCOc1nc([C@@H](CS(C)(=O)=O)n2c(=O)[nH]c3cc(-c4ccccc4Cl)ccc32)ccc1OC [Ex. 142, (S)-5-(2-chlorophenyl)-1-(1-(6-ethoxy-5-methoxypyridin-2-yl)-2-(methylsulfonyl)ethyl)-1H-benzo[d]imidazol-2(3H)-one] | + | + | +
23 | CCOc1nc([C@@H](CS(C)(=O)=O)n2c(=O)[nH]c3cc(-c4ccccc4OC)ccc32)ccc1OC [Ex. 143, (S)-1-(1-(6-ethoxy-5-methoxypyridin-2-yl)-2-(methylsulfonyl)ethyl)-5-(2-methoxyphenyl)-1H-benzo[d]imidazol-2(3H)-one] | + | + | +
